# Measured values: PubChem BioAssay (NCI)
#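 Values below derive from 48-hour exposures of cells grown in 96-well plates, with endpoints linearly interpolated between the two concentrations bracketing the appropriate inhibition level. GI50 marks 50% less growth. Definition used: TGI = concentration required for complete inhibition of growth.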
# Columns and labels:
# Assay in all cases: NCI anticancer screen, dose series, 48 h
# [1] = system: A498 renal
# [2] = system: SNB-75 CNS
# [3] = system: NCI-H23 lung
# [4] = system: OVCAR-3 ovarian
# [5] = system: CCRF-CEM leukemia
# [6] = system: HT29 colon
# [7] = system: K-562 leukemia
# [8] = system: SNB-19 CNS
# [9] = system: DU-145 prostate
# [10] = system: CAKI-1 renal
Structure (SMILES),TGI [1],TGI [2],TGI [3],TGI [4],TGI [5],TGI [6],TGI [7],TGI [8],GI50 [1],GI50 [2],GI50 [3],GI50 [9],TGI [9],GI50 [4],GI50 [5],GI50 [6],GI50 [7],GI50 [8],TGI [10],GI50 [10]
CC1(Sc2ccccc2)CN(Cc2ccccc2)C1=O (stereo not given),> 100 µM,> 100 µM,> 100 µM,> 100 µM,> 100 µM,> 100 µM,> 100 µM,> 100 µM,,,,,,,,,,,,
CCOC(=O)C=C1CCN(C(=O)c2ccccc2)CC1,> 100 µM,> 100 µM,> 100 µM,> 100 µM,> 100 µM,> 100 µM,> 100 µM,> 100 µM,,,,,,,,,,,,
Cc1cc(N2CCCCC2)nc(N(CCNc2ccnc3cc(Cl)ccc23)Cc2ccco2)n1,5.09 µM,4.33 µM,4.97 µM,3.14 µM,8.76 µM,2.84 µM,4.03 µM,12 µM,1.92 µM,1.88 µM,1.91 µM,2.87 µM,9.2 µM,1.74 µM,2.47 µM,1.05 µM,1.54 µM,3.26 µM,,
COC(=O)[C@@H]1CSC(=S)N1C(=O)C[C@H]1CC=CC[C@H]1CC(=O)Sc1ccccc1,,29 µM,46.5 µM,36.2 µM,14.9 µM,37.4 µM,38.9 µM,34.8 µM,,,,,,,,,,,,
C=C1C(=O)OC2CC3(C)C=CC(=O)C(=C)C3CC12 (stereo not given),19.5 µM,14.7 µM,3.48 µM,7.19 µM,,3.45 µM,> 100 µM,21.3 µM,,,,,,,,,,,2.77 µM,
CCOP(=O)(OCC)C1CCCCOC1=O (stereo not given),> 100 µM,> 100 µM,> 100 µM,> 100 µM,> 100 µM,> 100 µM,> 100 µM,> 100 µM,,,,,,,,,,,> 100 µM,
COc1cc(Cn2cc3c(c2)-c2oncc2CC3)cc(OC)c1OC,1.04 µM,,> 69.7 µM,,16.7 µM,> 100 µM,> 34.7 µM,> 100 µM,0.0196 µM,,0.048 µM,0.0412 µM,> 100 µM,,0.0193 µM,0.0339 µM,< 0.0183 µM,0.0437 µM,> 42.1 µM,0.0337 µM
O=C(O)[C@@H]1C2CC([C@@H]1C(=O)O)[C@H](N1C(=O)CCC1=O)[C@@H]2Br (stereo not given in full),> 100 µM,> 100 µM,> 100 µM,> 100 µM,> 100 µM,> 100 µM,> 100 µM,> 100 µM,,,,,> 100 µM,,,,,,,
CC1(C)CCC2(C(=O)OC3OC(CO)C(O)C(O)C3O)CC[C@]3(C)C(=CCC4C5(C)CC[C@H](OC6OC(C(=O)O)C(O)C(O)C6O)C(C)(C)C5CCC43C)C2C1 (stereo not given in full),,,3.73 µM,> 50 µM,> 50 µM,> 50 µM,> 50 µM,8.39 µM,,,1.48 µM,,,3.27 µM,23.1 µM,2.07 µM,1.58 µM,1.44 µM,> 50 µM,17.2 µM
COc1cc2cc(Oc3ccc(NC(=O)Nc4ccc(Cl)c(C(F)(F)F)c4)cc3)c(C)nc2cc1OCCN1CCCCC1,2.58 µM,2.33 µM,3.28 µM,3.03 µM,3.76 µM,,2.33 µM,3.19 µM,1.24 µM,1.13 µM,1.69 µM,1.53 µM,2.87 µM,1.6 µM,1.68 µM,,0.547 µM,1.68 µM,2.64 µM,1.31 µM
O=C(CC1Sc2ccccc2NC1=O)Nc1cc(Cl)ccc1Cl (stereo not given),> 100 µM,> 100 µM,> 100 µM,> 100 µM,> 100 µM,> 100 µM,> 100 µM,> 100 µM,,,,,,,,,,,> 100 µM,
CC(=O)[O][Pb]([O]C(C)=O)([c]1ccccc1)[c]1ccccc1,> 100 µM,> 77.7 µM,13.4 µM,> 100 µM,> 100 µM,> 100 µM,> 100 µM,46.6 µM,23.4 µM,4.41 µM,2.35 µM,,,2.4 µM,16.2 µM,14.5 µM,> 25.9 µM,23.8 µM,> 100 µM,13.7 µM
CCOC(=O)c1c2c(n(CC(C)C)c1C)-c1nc[nH]c1C(=O)C2=O,29 µM,,,26.3 µM,16.7 µM,46.5 µM,20.1 µM,30.1 µM,15.6 µM,,,16.1 µM,29.6 µM,13 µM,4.78 µM,20.4 µM,6.74 µM,16.4 µM,57.8 µM,17.7 µM
O=C(NCCCCCCNC(=O)c1cccc2ccccc12)c1cccc2ccccc12,65.6 µM,9.55 µM,> 100 µM,71 µM,> 100 µM,> 100 µM,> 100 µM,,,,,,,,,,,,66.3 µM,
CC12CCC(=O)C(O1)C1C(=O)c3cc4ccccc4cc3C(=O)C12 (stereo not given),,> 100 µM,31.6 µM,,31 µM,51.1 µM,41.5 µM,> 100 µM,,29.2 µM,15.8 µM,,,,11.4 µM,21 µM,16 µM,38.1 µM,25.6 µM,4.94 µM
Nc1nc(/C=C\c2ccc([N+](=O)[O-])o2)nc(N2CCN(c3ccccc3)CC2)n1,49.4 µM,47 µM,,18.2 µM,82.3 µM,55.9 µM,26.7 µM,83.8 µM,21.5 µM,20.9 µM,,3.9 µM,41.4 µM,3.96 µM,8.01 µM,13.7 µM,4.63 µM,20 µM,10.8 µM,3.5 µM
O=C1c2ccccc2C(=O)N1CC1(C(=O)O)NCCS1(=O)=O (stereo not given),> 100 µM,,> 100 µM,> 100 µM,> 100 µM,> 100 µM,> 100 µM,> 100 µM,,,,,,,,,,,> 100 µM,
CS(=O)(=O)CC1=Nc2nnc(CCCCCCCc3nnc4n3C(=O)C(CS(C)(=O)=O)=N4)n2C1=O,> 100 µM,> 100 µM,> 100 µM,> 100 µM,> 100 µM,> 100 µM,> 100 µM,> 100 µM,,,,,,,,,,,> 100 µM,
